For twelve molecules, MIC results are on record in DBAASP.

Some test systems named below: Staphylococcus xylosus; Proteus mirabilis; Escherichia coli; Klebsiella pneumoniae; Micrococcus luteus; Shigella dysenteriae; Salmonella typhimurium; Staphylococcus aureus; Pseudomonas aeruginosa; Bacillus subtilis.
What all share (experiment): ≥ marks a high value that may be exact or a test limit, other limits are often not marked, values filed in µg/mL are converted to µM
For test [1], the system named is Escherichia coli DH5alpha.
Test [2] has as its system Clavibacter michiganensis subsp. michiganensis DSM 46294.
Test [3] has as its system Pectobacterium carotovorum subsp. carotovorum DSM 30168.
Test [4] deals with Pseudomonas syringae pv. tomato DC3000.
Test [5] has as its system Xanthomonas vesicatoria DSM 50861.
The test system of test [6] is Pseudomonas corrugata DSM 7228.
The subject of test [7] is Pseudomonas syringae pv. syringae DSM 10604.
In test [8] the test system is Staphylococcus epidermidis.
For test [9], the system named is Candida albicans NCPF 1467.
Test [10] has as its system Escherichia coli NCTC 10418.
For test [11], the system named is Staphylococcus aureus NCTC 10788.
Test [12] relates to Staphylococcus aureus USA 100.
Test [13] deals with Pseudomonas aeruginosa ATCC 9027.
For test [14], the system named is Staphylococcus aureus USA 300.
For test [15], the system named is Escherichia coli KCTC 1682.
Test [16] concerns Escherichia coli ATCC 25922.
Test [17] deals with Pseudomonas aeruginosa KCTC 1637.
For test [18], the system named is Staphylococcus epidermidis KCTC 1917.
In test [19] the test system is Staphylococcus aureus KCTC 1621.
Test [20] concerns Staphylococcus aureus ATCC 25923.
Test [21] concerns Candida albicans ATCC 90028.

Converted amounts (≈) assume the structure as drawn.

In the case of `CC[C@H](C)[C@H](NC(=O)[C@H](CCCCN)NC(=O)[C@H](CCCCN)NC(=O)[C@@H](N)CCCCN)C(=O)N[C@H](C(=O)N[C@H](C(=O)N[C@H](C(=O)N[C@H](C(=O)N[C@@H](CCCCN)C(=O)N[C@@H](CCCCN)C(=O)N[C@@H](CCCCN)C(=O)O)[C@@H](C)CC)[C@@H](C)CC)[C@@H](C)CC)[C@@H](C)CC` [KKKIIIIIKKK], the MIC (in general, the lowest concentration that inhibits growth of the organism) in test [1] was 8 µM (≈ 10.8 µg/mL); in the test with Staphylococcus xylosus it was 0.5 µM (≈ 0.676 µg/mL).

As for `CC[C@H](C)[C@H](NC(=O)[C@H](CC(C)C)NC(=O)[C@H](CCCN=C(N)N)NC(=O)[C@H](CCCCN)NC(=O)[C@H](CC(C)C)NC(=O)[C@H](CC(C)C)NC(=O)[C@H](CCCCN)NC(=O)[C@H](CCCCN)NC(=O)[C@H](CCCN=C(N)N)NC(=O)[C@H](CCCCN)NC(=O)[C@H](CCCCN)NC(=O)[C@@H](N)CCCN=C(N)N)C(N)=O` [RKKRKKLLKRLI], the MIC in [2] amounted to 3.16 µM (≈ 5 µg/mL); in [3] it was 6.33 µM (≈ 9.99 µg/mL); in test [4], 6.33 µM (≈ 9.99 µg/mL); in [5], 6.33 µM (≈ 9.99 µg/mL); in test [6], 0.316 µM (≈ 0.5 µg/mL); in test [7] it was 0.158 µM (≈ 0.25 µg/mL).

Consider `CC(C)C[C@H](NC(=O)[C@@H](NC(=O)[C@H](CCCCN)NC(=O)[C@H](CC(C)C)NC(=O)[C@H](C)NC(=O)[C@@H](NC(=O)[C@H](CCCCN)NC(=O)[C@H](Cc1ccccc1)NC(=O)[C@H](CC(C)C)NC(=O)[C@H](C)NC(=O)[C@H](CCCCN)NC(=O)[C@H](CC(C)C)NC(=O)[C@@H](N)Cc1ccccc1)C(C)C)C(C)C)C(=O)O` [FLKALFKVALKVL], for which the MIC in the test on Proteus mirabilis was no less than 134 µM; against Escherichia coli it was 33.6 µM (≈ 50 µg/mL); in the test with Klebsiella pneumoniae it was 67.1 µM (≈ 100 µg/mL); in the test with Micrococcus luteus, 4.23 µM (≈ 6.3 µg/mL); against Shigella dysenteriae, no less than 33.6 µM; with Salmonella typhimurium, no less than 134 µM. The MIC in the test on Staphylococcus aureus is 2.08 µM (≈ 3.1 µg/mL); in test [8], 2.08 µM (≈ 3.1 µg/mL); in the test with Pseudomonas aeruginosa, greater than 134 µM; in the test on Bacillus subtilis, 16.8 µM (≈ 25 µg/mL).

As for `CC[C@H](C)[C@H](NC(=O)CN)C(=O)NCC(=O)NCC(=O)N[C@@H](C)C(=O)N[C@@H](CC(C)C)C(=O)N[C@@H](CC(C)C)C(=O)N[C@@H](CC(N)=O)C(=O)N[C@H](C(=O)NCC(=O)N[C@@H](CCCCN)C(=O)N[C@H](C(=O)N[C@@H](C)C(=O)N[C@@H](CC(C)C)C(=O)N[C@@H](CCCCN)C(=O)NCC(=O)N[C@@H](CC(C)C)C(=O)N[C@@H](C)C(=O)N[C@@H](CCCCN)C(=O)NCC(=O)N[C@@H](CC(C)C)C(=O)N[C@@H](C)C(=O)N[C@@H](CCC(=O)O)C(=O)N[C@@H](Cc1cnc[nH]1)C(=O)N[C@@H](Cc1ccccc1)C(=O)N[C@@H](C)C(=O)N[C@@H](CC(N)=O)C(N)=O)C(C)C)C(C)C` [GIGGALLNVGKVALKGLAKGLAEHFAN], the MIC amounted to 12.2 µM (≈ 32 µg/mL) in [9], 12.2 µM (≈ 32 µg/mL) in test [10] and 3.05 µM (≈ 8 µg/mL) in test [11].

Regarding `NC(=O)[C@H](CCCN=C(N)N)NC(=O)[C@H](CC(=O)O)NC(=O)[C@H](CCCN=C(N)N)NC(=O)[C@@H](N)CC(=O)O` [DRDR], in [12], the MIC is no less than 100 µM.

On to `CC[C@H](C)[C@H](NC(=O)[C@H](C)NC(=O)[C@H](CCCCN)NC(=O)[C@@H](NC(=O)[C@H](CC(C)C)NC(=O)CNC(=O)[C@H](CCCCN)NC(=O)[C@@H](NC(=O)[C@@H](NC(=O)[C@H](CCCCN)NC(=O)[C@@H]1CCCN1C(=O)[C@@H](NC(=O)[C@H](CC(C)C)NC(=O)[C@H](CCCCN)NC(=O)[C@H](Cc1ccccc1)NC(=O)[C@H](CC(C)C)NC(=O)[C@@H](N)Cc1ccccc1)[C@@H](C)CC)C(C)C)[C@@H](C)CC)C(C)C)C(=O)N[C@@H](CCCN=C(N)N)C(=O)N[C@@H](CCCCN)C(N)=O` [FLFKLIPKVIKGLVKAIRK], for which the values for the MIC in test [9], in test [10] and in test [11] were 1.81 µM (≈ 4 µg/mL), 7.23 µM (≈ 16 µg/mL) and 1.81 µM (≈ 4 µg/mL), respectively.

Take `CC[C@H](C)[C@H](NC(=O)[C@H](CO)NC(=O)[C@H](CC(N)=O)NC(=O)[C@@H](NC(=O)[C@H](CC(C)C)NC(=O)[C@H](C)NC(=O)[C@H](CO)NC(=O)[C@H](C)NC(=O)[C@H](Cc1ccccc1)NC(=O)[C@H](CC(=O)O)NC(=O)[C@H](CCCCN)NC(=O)[C@H](C)NC(=O)CNC(=O)[C@H](CCCCN)NC(=O)[C@H](CCCCN)NC(=O)[C@H](CC(C)C)NC(=O)[C@H](CCCCN)NC(=O)[C@H](CCC(=O)O)NC(=O)[C@H](CC(C)C)NC(=O)[C@H](Cc1ccccc1)NC(=O)CN)C(C)C)C(=O)N[C@@H](CCCCN)C(=O)NCC(=O)N[C@H](C(=O)O)[C@@H](C)O` [GFLEKLKKGAKDFASALVNSIKGT]: the MIC in test [9] is no less than 101 µM; in [10], no less than 50.7 µM; in test [11], no less than 203 µM.

In turn, `NCCCC[C@H](NC(=O)[C@H](Cc1c[nH]c2ccccc12)NC(=O)[C@H](CCCCN)NC(=O)[C@@H](N)Cc1c[nH]c2ccccc12)C(N)=O` [WKWK] had an MIC in test [12] of no less than 100 µM.

`NC(=O)[C@H](CCCN=C(N)N)NC(=O)[C@H](Cc1ccccc1)NC(=O)[C@H](CCCN=C(N)N)NC(=O)[C@@H](N)Cc1ccccc1` [FRFR] showed an MIC in test [12] of no less than 100 µM.

On to `CC(C)C[C@H](NC(=O)[C@H](C)N)C(=O)N[C@@H](Cc1ccccc1)C(=O)N[C@@H](CCCCN)C(=O)N[C@H](C(=O)N[C@@H](C)C(=O)N[C@@H](CO)C(=O)N[C@@H](CCCCN)C(=O)N[C@H](C(=O)N[C@@H](CC(C)C)C(=O)N1CCC[C@H]1C(=O)N[C@@H](CO)C(=O)N[C@H](C(=O)O)C(C)C)C(C)C)C(C)C` [ALFKVASKVLPSV], for which the MIC is no less than 147 µM in the test on Proteus mirabilis; greater than 147 µM with Escherichia coli; greater than 147 µM in the test with Klebsiella pneumoniae; no less than 147 µM in the test with Micrococcus luteus; no less than 147 µM with Shigella dysenteriae; no less than 147 µM with Salmonella typhimurium. Also, the MIC was greater than 147 µM in the test on Staphylococcus aureus, no less than 147 µM in [8], greater than 147 µM with Pseudomonas aeruginosa and no less than 147 µM in the test with Bacillus subtilis.

As to `NC(=O)[C@H](CCCN=C(N)N)NC(=O)[C@H](Cc1c[nH]c2ccccc12)NC(=O)[C@H](CCCN=C(N)N)NC(=O)[C@H](Cc1c[nH]c2ccccc12)NC(=O)[C@H](CCCN=C(N)N)NC(=O)[C@@H](N)Cc1c[nH]c2ccccc12` [WRWRWR], the MIC in test [12] is 25 µM (≈ 26.1 µg/mL); in test [13] it was greater than 100 µM; in test [14] it was 25 µM (≈ 26.1 µg/mL); in test [15], 3.83 µM (≈ 4 µg/mL); in [16], 7.18 µM (≈ 7.49 µg/mL); in [17], 15.3 µM (≈ 16 µg/mL). The MIC in test [18] was 7.65 µM (≈ 7.99 µg/mL); in test [19], 7.65 µM (≈ 7.99 µg/mL); in [20] it was 7.18 µM (≈ 7.49 µg/mL); in test [21], no less than 100 µM.

`CC[C@H](C)[C@H](NC(=O)[C@H](C)NC(=O)[C@H](CCCCN)NC(=O)[C@@H]1CCCN1C(=O)[C@@H](NC(=O)[C@H](CC(C)C)NC(=O)[C@H](CCCCN)NC(=O)[C@H](Cc1ccccc1)NC(=O)[C@H](CC(C)C)NC(=O)[C@@H](N)Cc1ccccc1)[C@@H](C)CC)C(=O)N[C@@H](CCCCN)C(=O)NCC(=O)N[C@@H](CC(C)C)C(=O)N[C@H](C(=O)N[C@@H](CCCCN)C(=O)N[C@@H](C)C(=O)N[C@@H](Cc1ccccc1)C(=O)N[C@H](C=O)CCCCN)[C@@H](C)CC` [FLFKLIPKAIKGLIKAFK]: the MIC in [9] came out at 4 µM (≈ 8.24 µg/mL); in test [10], 8 µM (≈ 16.5 µg/mL); in [11], 4 µM (≈ 8.24 µg/mL).
